{
  "source": "patent US20260335323A1",
  "about": "“CHIMERIC MOLECULE” (UCL Business Ltd, priority 2023, published 2026)",
  "key": {"SH-SY5Y cells": {"tested_on": "SH-SY5Y cells", "assay": "mito-mKeima mitophagy assay (mitophagy index)", "type": "cell-based, human", "conditions": "mitochondrial toxin treatment", "description": "FIG. 1. The structure of AUTAC-4 is shown in (A). (B) Representative images of SH-SY5Y cells stably expressing the mito-mKeima reporter treated with AUTAC4 for 18 h. Nuclei were stained with Hoechst 33342, healthy mitochondria are shown in green and mitochondria in lysosomes are shown in red. (C-E) Fold change in mitophagy index over time after treatment with increasing concentrations of AUTAC4 under treatment with DMSO (C), 3 mM CCCP (D) or 0.1/0.1 mM antimycin/oligomycin (E), also for 18 h. (F) Quantification of changes in mitochondrial membrane potential over time (DYm) by measuring the TMRM relative fluorescence intensity (RFI) treated with DMSO, 10 mM CCCP, 10 mM and 20 mM AUTAC4. Normalised to number of nuclei. (G) Representative western blot of SH-SY5Y cells treated with DMSO, 10 mM AUTAC4 or 10 mM AUTAC4+0.1/0.1 mM antimycin/oligomycin for 18 h and, probed for p62, b-actin and Tom20. Quantifications of western blot for changes in Tom20 and p62 levels shown in (H) and (I), respectively. (J) Representative images of PANC-1 cells stably expressing the mCherry-EGFP-LC3 tandem reporter. Nuclei stained with Hoechst 33342, autophagosomes are shown in the EGFP channel and autolysosomes in the mCherry channel. Fold change in the number of autophagosome (K) and autolysosome (L) puncta in AUTAC4 treated cells. All data shown are mean±SEM, n=3, *p<0.05, *** p<0.001. For mito-mKeima experiments, statistics were calculated by Two-way ANOVA with Tukey's multiple comparisons test. For western blots, TMRM and LC3 tandem reporter assay, statistics were calculated with one-way ANOVA with Tukey's multiple comparisons test.\n(§1) FIG. 5. ULKTACs induce potent mitophagy after colocalisation and local activation of ULK1 at mitochondria (A) Representative immunofluorescence of PANC-1 cells treated with CCCP, ULKTACs or both and immunostained for TOM20 and ULK1 and counterstained with Alexa 488 and 568, respectively. Nuclei stained with Hoechst 33342. (B) Quantification of the colocalised ULK1 to TOM20 spot area of PANC-1 cells treated with DMSO, 5 mM CCCP, 10 mM BL-918, 10 mM BL-918+5 mM CCCP, […] NZ-65, […] NZ-65+5 mM CCCP, […] NZ-66, […] NZ-66+5 mM CCCP, 50 mM TSPO ligand, […] NZ-65+50 mM TSPO ligand, […] NZ-66+50 mM TSPO ligand. (C) Western blot of SH-SY5Y cells treated with 1 mM ULKTACs, 5 mM CCCP or both, probed for Mfn2, b-Actin and Tom20—quantifications are shown in (D) for Mfn2, normalised to Actin. (E) Representative images of SH-SY5Y cells stably expressing the mito-mKeima reporter treated with 3 mM CCCP, NZ-65 or both. Nuclei were stained with Hoechst 33342, healthy mitochondria are shown in green and mitochondria in lysosomes are shown in red. Fold change in mitophagy index over time after treatment for the indicated timepoints with title treatments alone or co-treated with 1.25 mM ULKTAC or 10 mM ULKTAC NZ-65 (F) or NZ-66 (G). Fold change in mitophagy index over time after treatment for the indicated timepoints with DMSO, 1.25 µM NZ-65 or NZ-66±50 µM TSPO ligand under co-treatment with DMSO (H) or 3 μM CCCP (I). […] Normalised to number of nuclei. All data shown are mean±SEM, n=3, *p<0.05, ** p<0.01, *** p<0.001. For colocalisation and TMRM experiments, one-way ANOVA with Dunnett's multiple comparisons test. For western blots, one-way ANOVA with Tukey's multiple comparisons test and unpaired t-test. For mito-mKeima experiment, two-way ANOVA with Tukey's multiple comparisons test.\nSH-SY5Y stably expressing mito-mKeima were produced as previously described28,29. Cells were seeded in 384 well CellCarrier Ultra plates (PerkinElmer) 24 hours before treatment in complete media without phenol red. Cells were treated with increasing concentrations of BL-918, AUTAC4, NZ-65 or NZ-66, 24 hours prior to treatment with increasing concentrations of mitochondrial uncouplers to cause mitochondrial insult. SH-SY5Y mitochondria were treated with DMSO, 3 μM CCCP, 10 μM CCCP, 0.1/0.1 μM antimycin/oligomycin (AO), 0.5/0.5 µM AO or 1/1 μM AO. […]"}, "ULK1": {"target": "T1, ULK1 (Homo sapiens, UniProt O75385)", "T1 sequence (O75385 1-1050)": "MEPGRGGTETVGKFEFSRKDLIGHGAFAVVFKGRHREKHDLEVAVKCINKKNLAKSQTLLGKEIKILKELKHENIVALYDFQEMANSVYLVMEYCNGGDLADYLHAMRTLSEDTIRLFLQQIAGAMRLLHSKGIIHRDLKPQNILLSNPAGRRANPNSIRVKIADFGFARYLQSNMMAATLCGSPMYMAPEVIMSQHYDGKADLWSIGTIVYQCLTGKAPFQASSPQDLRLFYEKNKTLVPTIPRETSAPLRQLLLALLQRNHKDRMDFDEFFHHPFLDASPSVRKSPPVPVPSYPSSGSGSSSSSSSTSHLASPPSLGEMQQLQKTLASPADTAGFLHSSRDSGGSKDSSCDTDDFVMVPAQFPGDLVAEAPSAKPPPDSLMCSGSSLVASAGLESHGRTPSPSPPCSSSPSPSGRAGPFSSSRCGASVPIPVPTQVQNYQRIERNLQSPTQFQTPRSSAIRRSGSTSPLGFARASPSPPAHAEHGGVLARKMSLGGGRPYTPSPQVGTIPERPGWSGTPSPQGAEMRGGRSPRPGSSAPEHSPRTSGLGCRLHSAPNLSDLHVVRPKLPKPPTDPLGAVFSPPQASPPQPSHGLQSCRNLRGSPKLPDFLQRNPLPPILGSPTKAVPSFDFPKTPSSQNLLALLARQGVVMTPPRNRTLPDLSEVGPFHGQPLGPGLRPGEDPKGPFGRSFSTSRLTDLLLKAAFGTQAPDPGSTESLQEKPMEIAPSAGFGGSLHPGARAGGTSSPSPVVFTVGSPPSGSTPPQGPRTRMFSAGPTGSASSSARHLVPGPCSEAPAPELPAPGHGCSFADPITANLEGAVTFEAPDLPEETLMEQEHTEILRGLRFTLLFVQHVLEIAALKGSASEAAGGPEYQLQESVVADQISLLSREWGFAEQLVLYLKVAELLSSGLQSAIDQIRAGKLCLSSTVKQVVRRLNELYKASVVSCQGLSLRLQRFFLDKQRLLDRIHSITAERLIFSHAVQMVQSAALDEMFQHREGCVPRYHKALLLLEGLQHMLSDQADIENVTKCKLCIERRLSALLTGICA", "assay": "ULK1/TOM20 co-localisation immunofluorescence in PANC-1 cells", "type": "cell-based", "parameters": "pSer317 blot or TOM20 co-localisation", "conditions": "PANC-1, 18 hours, alone", "description": "as §1\nFor TOM20/ULK1 immunofluorescence, cells were seeded in a 384 well PerkinElmer CellCarrier Ultra plate 24 hours prior to treatment with compounds. Cells were treated for 18 hours after which they were fixed with 4% paraformaldehyde (PFA) in phosphate buffered saline (PBS) and blocked with 10% FBS and 0.1% Triton in PBS. Plates were incubated at 4° C. overnight, with 1:400 mouse anti-TOM20 (Santa Cruz, #sc-17764) and 1:400 rabbit anti-ULK1 (Cell Signalling Technologies, #0854). The following day, plates were incubated with 1:1000 goat anti-mouse Alexa 488 (ThermoFisher Scientific, #A-11029), 1:1000 goat anti-rabbit Alexa 568 (ThermoFisher Scientific, #A-11011) and 1.62 μM Hoechst 33342 at room temperature for 1 hour before imaging. For ATP5a/LC3 immunofluorescence, cells were fixed with ice-cold 1:1 MeOH: acetone and blocked with 3% BSA (Sigma-Aldrich, #A3803) in Dulbecco's PBS (D-PBS). Plates were incubated overnight at 4° C. with 1:400 LC3B (D11) XP Rabbit mAb Alexa Fluor 647 Conjugate (Cell Signalling Technologies, #65299) and 1:400 ATP5a (Cell Signalling Technologies, #18023) lightning-linked to Alexa Fluor 488. The following day, plates were incubated with 1.62 […] at room temperature for 1 hour before imaging. Excitation and emission spectra for each channel are as follows: Hoechst 33342=405/435-480 nm, Alexa 488=488/500-550 nm and Alexa 568=561/570-630 nm. Images were acquired at 40× and 63× magnification with water immersion lens.\nTo understand the temporal kinetics of NZ-65 and NZ-66, we assessed the recruitment of ULK1 to mitochondria, using co-localisation of ULK1 and TOM20 by immunofluorescence. […] After showing the co-localisation of ULK1 to the outer mitochondrial membrane (OMM) after ULKTAC treatment, we wanted to determine whether the ULKTACs induced mitophagy. To do this, we measured changes in Mfn2 under basal conditions and co-treatment with CCCP (FIG. 5C, D)."}, "Mfn2": {"tested_on": "Mfn2", "assay": "Western blot, Mfn2 degradation in MEF WT", "type": "cell-based, mouse", "conditions": "with ULKTAC; cells not given", "description": "FIG. 6. ULKTACs rely on ULK1 for the redirection of autophagy components to mitochondria and subsequent mitophagic degradation (A) Western blot of mouse embryonic fibroblasts (MEF) WT and MEF ULK1/2^−/− treated with 1 mM ULKTACs, 5 mM CCCP or both and probed for ULK1, Mfn2 and Actin—quantification of the relative intensity of Mfn2 shown in (B), normalised to Actin. Representative immunofluorescence of MEF WT (C) and MEF ULK1/2^−/− (D) treated with 5 mM CCCP, 1 mM ULKTACs or both and immunostained for Alexa 488 ATP5a and Alexa 647 LC3B. Quantification of the colocalised LC3 to ATP5a spot area shown in WT vs ULK1/2^−/− treated MEF cells shown in (E). Data shown are mean±SEM, n=3, *p<0.05, ** p<0.01, *** p<0.001, Two-way ANOVA with Tukey's multiple comparisons test.\nCells were homogenised in protein lysis buffer consisting of 0.1 M Tris pH 8.0, 0.1 M NaCl, 5% glycerol, IGEPAL® CA-630 (#18896. Sigma-Aldrich) and 5 mM EDTA, 0.1 M N-ethyl maleimide (ThermoFisher, #23030) and protease inhibitor (Cell Signalling Technologies, #5871). Protein concentrations were determined using the BCA assay to ensure equal loading. […] The membranes were immunoblotted with primary antibodies, overnight at 4° C. ULK1 (D8H5) Rabbit mAb (#0854) [1:1000], Phospho-ULK1 (Ser 317) Rabbit antibody (#37762) [1:1000], LC3B Rabbit antibody (#2775) [1:1000], TOM20 (D8T4N) Rabbit mAb (#42406) [1:1000] and, Phospho-Ubiquitin (Ser 65) (E2J6T) Rabbit mAb (#62082) [1:500] were obtained from Cell Signalling Technologies. Recombinant Anti-Vinculin Rabbit antibody (EPR8185) (#ab129002) [1:5000] and Anti-Mitofusin2 mouse antibody (6A8) (#ab56889) [1:1000] were purchased from Abcam. Anti-Actin mouse monoclonal antibody (#A1978) [1:1000] and Anti-rabbit p62/SQSTM1 (#P0067) [1:1000], were purchased from Sigma-Aldrich. Mono- and polyubiquitinylated conjugates monoclonal antibody (FK2) (BML-PW8810-0100) [1:500] was purchased from Enzo Life Sciences. Anti BRD4 (E2A7X) rabbit monoclonal antibody (#13440), Anti c-MYC (D84C12) rabbit monoclonal antibody (#5605) [1:1000], Anti GAPDH (D4C6R) mouse monoclonal antibody (#97166) [1:1000], Anti Max (S20) rabbit monoclonal antibody (#4739) [1:1000] were purchased from Cell Signalling Technologies. Anti Phospho-CHK1 (Ser 345) rabbit monoclonal antibody (#2341) [1:1000], Anti gamma-H2AX (Ser 139) rabbit monoclonal antibody (#2577) [1:1000] were obtained from Cell Signalling Technologies, Anti RPA32/RPA2 (phospho S4/S8) rabbit monoclonal antibody (ab87277) [1:1000] were obtained from Abcam.\nMembranes were then incubated with horseradish peroxidase (HRP)-conjugated secondary antibodies (Rabbit #7074 and Mouse #7076) purchased from Cell Signalling Technologies for 1 hour and the HRP signal was detected using EZ-ECL Enhanced Chemiluminescence Detection Kit for HRP (#20-500-500, Sartorius), and imaged with an Alliance Q9 Advanced (UVITec). Where required, membranes were stripped with mild stripping buffer consisting of 0.2 M glycine, 3.47 mM SDS, 1% Tween 20, pH 2.2, blocked for 1 hour with TBS-T+3% BSA and re-probed with primary antibodies.\nTherefore, we conclude that NZ-65 and NZ-66 are novel ULKTAC molecules that initiate the recruitment of ULK1 to mitochondria, leading to an increase in local ULK1 activity, the formation of an autophagosome and mitophagy."}},
  "data": [
    {"smiles": "N#CC(C#N)=NNc1cccc(Cl)c1", "note": "[CCCP, reference compound]", "values": [
      {"measurement": "induction of mitophagy", "setting": "SH-SY5Y cells", "result": "induction of mitophagy"}
    ]},
    {"smiles": "NC(=O)C(=O)c1c(-c2ccccc2)[nH]c2ccccc12", "note": "[TSPO ligand, reference compound]", "values": [
      {"measurement": "co-localisation of ULK1 and TOM20", "setting": "ULK1", "result": "neither BL-918 nor the TSPO ligand alone induce co-localisation"}
    ]},
    {"smiles": "COc1ccc(Nc2ncc(C(F)(F)F)c(NC3CC3)n2)cc1OC", "note": "[SBP-7455, reference compound]", "values": [
      {"measurement": "ULKTAC mediated degradation of Mfn2 in presence of dual ULK1/2 inhibitor", "setting": "Mfn2", "result": "additionally demonstrating the requirement for ULK1 for ULKTAC mediated degradation of Mfn2"}
    ]}
  ]
}
